Experimental data from US20250084084A1, “Crystalline form of (2R)-2-(5-fluoro-2-methoxypyridin-4-yl)-1-[(2S)-7-methyl-6-(pyrimidin-2-yl)-3,4-dihydro-1H-spiro[1,8-naphthyridine-2,3-pyrrolidin]-1-yl]propan-1-one” (Pfizer Inc., priority 2020, published 2025).
Like-named read-outs stand apart in the source and are kept apart here.

Molecular target: α-melanocyte-stimulating hormone receptor (hMC4R) (Homo sapiens (Human), UniProt P32245)
Assay: In vitro binding affinity assay using hMC4R (radioligand competition binding, [125I]-(Nle4, D-Phe7)-α-MSH)
Conditions: geometric mean
Description: The binding affinity of test compounds at the α-melanocyte-stimulating hormone receptor (hMC4R) was assessed using a radioligand competition binding assay. Recombinant Chinese hamster ovaries (CHO) cells stably expressing hMC4R (PerkinElmer #ES-191-C) were used for competitive binding. hMC4R membranes were grown in Dulbecco's Modified Essential Medium and Ham's F-12 Medium (DMEM/F12), 10% heat inactivated fetal bovine serum (FBS), 0.4 mg/mL Geneticin and 2 mM L-glutamine. Cell membranes were bulked and frozen until the assay was performed.
Compounds were solubilized in 100% dimethyl sulfoxide (DMSO) to a concentration of 30 mM. A 10-point intermediate dilution series using half log dilutions was created in 100% DMSO with a top concentration of 0.03 mM. The serially diluted compounds were spotted as 1 μL/well, in 96-well Costar 3363 plates. The final compound range in the assay was 300 nM to 0.01 nM with a final DMSO concentration of 1%. Control wells, containing 1 μL of 2 mM ([…]) alpha-melanocyte stimulating hormone (α-MSH-Tocris #2584) was added to the non-specific binding wells and 1 μL 100% DMSO for the total binding control wells. […] The exact concentration of radioligand used for each experiment was determined by liquid scintillation counting and adjusted if necessary.
Frozen hMC4R cell membranes were thawed and Dounce homogenized. Homogenates were resuspended in assay buffer to a concentration of 2 μg per well. […] The plates were incubated for 2 hours at room temperature. Assay samples were then rapidly filtered through Unifilter-96 GF/B PEI coated filter plates using a filter plate harvester (PerkinElmer) and rinsed with ice-cold wash buffer [25 mM (4-(2-hydroxyethyl)-1-piperazineethanesulfonic acid (HEPES), 1 mM MgCl2, 2.5 mM CaCl2, and 500 mM NaCl]. Filter plates were dried overnight at room temperature. Plates were then bottom-sealed prior to the addition of 50 μL/well Ultima Gold XR scintillation fluid (PerkinElmer 6013111). Plates were then top-sealed, incubated for 60 minutes at room temperature and then the amount of radioactivity present was determined by liquid scintillation counting on a Microbeta Trilux (PerkinElmer #2450-0060).
The raw data (expressed as counts per minute) were analyzed using ActivityBase (IDBS Data Management Software). […] Equilibrium dissociation constant for inhibitor of ligand and receptor interaction (Ki) values were then calculated from the IC50 values using the Cheng-Prusoff equation: Ki=IC50/(1+([L]/Kd)), where [L] is the concentration of the radioligand used in the experiment and Kd is the affinity of the radioligand (determined in separate saturation experiments).

[1] = read-out: Ki (nM) geometric mean

α-melanocyte-stimulating hormone receptor (hMC4R), sequence (P32245 whole entry): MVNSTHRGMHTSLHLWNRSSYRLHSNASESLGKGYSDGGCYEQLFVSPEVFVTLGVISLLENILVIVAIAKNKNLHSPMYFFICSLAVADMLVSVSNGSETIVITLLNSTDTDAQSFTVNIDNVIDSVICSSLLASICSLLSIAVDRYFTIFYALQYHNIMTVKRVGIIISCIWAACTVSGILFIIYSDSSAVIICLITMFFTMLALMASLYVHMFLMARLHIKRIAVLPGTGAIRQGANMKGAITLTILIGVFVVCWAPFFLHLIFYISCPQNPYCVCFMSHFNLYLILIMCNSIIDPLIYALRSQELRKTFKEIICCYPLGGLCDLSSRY

SMILES	Ki (read-out: Ki (nM) geometric) [nM]	Ki [1] [nM]
COc1cc([C@@H](C)C(=O)N2CC[C@@]3(CCc4cc(-c5cnn(C)n5)c(C)nc4N3)C2)c(Cl)cn1 [Example 119, (2R)-2-(5-chloro-2-methoxypyridin-4-yl)-1-[(2S)-7-methyl-6-(2-methyl-2H-1,2,3-triazol-4-yl)-3,4-dihydro-1H-spiro[1,8-naphthyridine-2,3′-pyrrolidin]-1′-yl]propan-1-one]	> 17	–
COc1cc([C@@H](C)C(=O)N2CC[C@@]3(CCc4cc(-c5nnn(C)n5)c(C)nc4N3)C2)ccn1 (single isomer, unassigned) [Example 125]	3.4	–
COc1cc([C@@H](C)C(=O)N2CC[C@@]3(CCc4cc(-c5cccc(C(F)F)n5)c(C)nc4N3)C2)c(F)cn1 [Example 181, (2R)-1-{(2S)-6-[6-(difluoromethyl)pyridin-2-yl)-7-methyl-3,4-dihydro-1H-spiro[1,8-naphthyridine-2,3′-pyrrolidin]-1′-yl}-2-(5-fluoro-2-methoxypyridin-4-yl)propan-1-one]	2.4	–
COc1cc(C(C)(F)C(=O)N2CC[C@@]3(CCc4cc(-c5ncccn5)c(C)nc4N3)C2)c(F)cn1 (single isomer, unassigned) [Example 148]	12	–
COc1cc([C@@H](C)C(=O)N2CC[C@@]3(CCc4cc(-c5nnn(C)n5)c(C)nc4N3)C2)c(F)cn1 [Example 13, (2R)-2-(5-fluoro-2-methoxypyridin-4-yl)-1-[(2S)-7-methyl-6-(2-methyl-2H-tetrazol-5-yl)-3,4-dihydro-1H-spiro[1,8-naphthyridine-2,3′-pyrrolidin]-1′-yl]propan-1-one]	–	0.6
Cc1nc2c(cc1-c1ncccn1)CC[C@@]1(CCN(C(=O)[C@H](C)c3cc(N(C)C)ncc3F)C1)N2 (single isomer, unassigned) [Example 81]	–	6.6
COc1cc([C@@H](C)C(=O)N2CC[C@@]3(CCc4cc(-c5nc(C(F)(F)F)cs5)c(C)nc4N3)C2)c(F)cn1 [Example 182, (2R)-2-(5-fluoro-2-methoxypyridin-4-yl)-1-{(2S)-7-methyl-6-[4-(trifluoromethyl)-1,3-thiazol-2-yl]-3,4-dihydro-1H-spiro[1,8-naphthyridine-2,3′-pyrrolidin]-1′-yl}propan-1-one]	12	–
COc1cc([C@@H](C)C(=O)N2CC[C@@]3(CCc4cc(-c5nc(C(F)(F)F)n(C)n5)c(C)nc4N3)C2)c(Cl)cn1 (single isomer, unassigned) [Example 94]	–	1.2
[2H]c1cc([2H])nc(-c2cc3c(nc2C)N[C@@]2(CC3)CCN(C(=O)[C@H](C)c3cc(OC)ncc3F)C2)n1 [Example 18, (2R)-2-(5-Fluoro-2-methoxypyridin-4-yl)-1-{(2S)-7-methyl-6-[(4,6-2H2)pyrimidin-2-yl]-3,4-dihydro-1H-spiro[1,8-naphthyridine-2,3′-pyrrolidin]-1′-yl}propan-1-one]	–	0.18
Cc1nc2c(cc1-c1ncccn1)CC[C@@]1(CCN(C(=O)[C@H](C)c3ccc(F)c(F)c3)C1)N2 (single isomer, unassigned) [Example 50]	–	0.81
COc1cc([C@@H](C)C(=O)N2CC[C@@]3(CCc4cc(-c5csc(C6CC6)n5)c(C)nc4N3)C2)c(F)cn1 [Example 171, (2R)-1-[(2S)-6-(2-cyclopropyl-1,3-thiazol-4-yl)-7-methyl-3,4-dihydro-1H-spiro[1,8-naphthyridine-2,3′-pyrrolidin]-1′-yl]-2-(5-fluoro-2-methoxypyridin-4-yl)propan-1-one]	3.6	–
COc1cc([C@@H](C)C(=O)N2CC[C@@]3(CCc4cc(-c5ccnnc5)c(C)nc4N3)C2)c(F)cn1 [Example 141, (2R)-2-(5-fluoro-2-methoxypyridin-4-yl)-1-[(2S)-7-methyl-6-(pyridazin-4-yl)-3,4-dihydro-1H-spiro[1,8-naphthyridine-2,3′-pyrrolidin]-1′-yl]propan-1-one]	14	–
COc1cc([C@@H](C)C(=O)N2CC[C@@]3(CCc4cc(-c5nccc(C(F)(F)F)n5)c(C)nc4N3)C2)c(F)cn1 [Example 143, (2R)-2-(5-fluoro-2-methoxypyridin-4-yl)-1-{(2S)-7-methyl-6-[4-(trifluoromethyl)pyrimidin-2-yl]-3,4-dihydro-1H-spiro[1,8-naphthyridine-2,3′-pyrrolidin]-1′-yl}propan-1-one]	1.3	–
COc1cc([C@@H](C)C(=O)N2CC[C@@]3(CCc4cc(-c5cnsc5)c(C)nc4N3)C2)c(F)cn1 [Example 150, (2R)-2-(5-fluoro-2-methoxypyridin-4-yl)-1-[(2S)-7-methyl-6-(1,2-thiazol-4-yl)-3,4-dihydro-1H-spiro[1,8-naphthyridine-2,3′-pyrrolidin]-1′-yl]propan-1-one]	3.9	–
COc1cc([C@@H](C)C(=O)N2CC[C@@]3(CCc4cc(-c5cccc(-c6nnc(C)o6)n5)c(C)nc4N3)C2)c(F)cn1 [Example 152, (2R)-2-(5-fluoro-2-methoxypyridin-4-yl)-1-{(2S)-7-methyl-6-[6-(5-methyl-1,3,4-oxadiazol-2-yl)pyridin-2-yl]-3,4-dihydro-1H-spiro[1,8-naphthyridine-2,3′-pyrrolidin]-1′-yl}propan-1-one]	2.5	–
COc1cc([C@H](C)C(=O)N2CC[C@]3(CCc4cc(-c5ncccn5)c(C)nc4N3)C2)c(F)cn1 [Example 30, (2S)-2-(5-fluoro-2-methoxypyridin-4-yl)-1-[(2R)-7-methyl-6-(pyrimidin-2-yl)-3,4-dihydro-1H-spiro[1,8-naphthyridine-2,3′-pyrrolidin]-1′-yl]propan-1-one]	–	> 250
Cc1nc2c(cc1-c1ncccn1)CC[C@@]1(CCN(C(=O)Cc3cc(F)c(F)c(F)c3)C1)N2 [Example 54, 1-[(2S)-7-methyl-6-(pyrimidin-2-yl)-3,4-dihydro-1H-spiro[1,8-naphthyridine-2,3′-pyrrolidin]-1′-yl]-2-(3,4,5-trifluorophenyl)ethan-1-one]	–	0.93
COc1cc([C@@H](C)C(=O)N2CC[C@@]3(CCc4cc(-c5cnn(C)n5)c(C)nc4N3)C2)c(F)cn1 [Example 118, (2R)-2-(5-fluoro-2-methoxypyridin-4-yl)-1-[(2S)-7-methyl-6-(2-methyl-2H-1,2,3-triazol-4-yl)-3,4-dihydro-1H-spiro[1,8-naphthyridine-2,3′-pyrrolidin]-1′-yl]propan-1-one]	0.83	–
COc1cc([C@@H](C)C(=O)N2CC[C@@]3(CCc4cc(-c5ccc(C6CC6)cn5)c(C)nc4N3)C2)c(F)cn1 [Example 186, (2R)-1-[(2S)-6-(5-cyclopropylpyridin-2-yl)-7-methyl-3,4-dihydro-1H-spiro[1,8-naphthyridine-2,3′-pyrrolidin]-1′-yl]-2-(5-fluoro-2-methoxypyridin-4-yl)propan-1-one]	19	–
COc1cc([C@@H](C)C(=O)N2CC[C@]3(CCc4cc(-c5ncccn5)c(C)nc4N3)C2)c(F)cn1 [Example 29, (2R)-2-(5-fluoro-2-methoxypyridin-4-yl)-1-[(2R)-7-methyl-6-(pyrimidin-2-yl)-3,4-dihydro-1H-spiro[1,8-naphthyridine-2,3′-pyrrolidin]-1′-yl]propan-1-one]	–	11
COc1cc([C@@H](C)C(=O)N2CC[C@@]3(CCc4cc(-c5ccnc(N6CCOCC6)n5)c(C)nc4N3)C2)c(F)cn1 [Example 196, (2R)-2-(5-fluoro-2-methoxypyridin-4-yl)-1-{(2S)-7-methyl-6-[2-(morpholin-4-yl)pyrimidin-4-yl]-3,4-dihydro-1H-spiro[1,8-naphthyridine-2,3′-pyrrolidin]-1′-yl}propan-1-one]	8.1	–
COc1cc([C@@H](C)C(=O)N2CC[C@@]3(CCc4ccc(C)nc4N3)C2)nc(C)n1 (single isomer, unassigned) [Example 23, 2-(6-methoxy-2-methylpyrimidin-4-yl)-1-(7-methyl-3,4-dihydro-1H-spiro[1,8-naphthyridine-2,3′-pyrrolidin]-1′-yl)propan-1-one]	–	21
COc1cc([C@@H](C)C(=O)N2CC[C@@]3(CCc4cc(-c5cnc(C(F)(F)F)nc5)c(C)nc4N3)C2)c(F)cn1 [Example 170, (2R)-2-(5-fluoro-2-methoxypyridin-4-yl)-1-{(2S)-7-methyl-6-[2-(trifluoromethyl)pyrimidin-5-yl]-3,4-dihydro-1H-spiro[1,8-naphthyridine-2,3′-pyrrolidin]-1′-yl}propan-1-one]	43	–
COc1cc([C@@H](C)C(=O)N2CC[C@@]3(CCc4cc(-c5cnc(C6CC6)cn5)c(C)nc4N3)C2)c(F)cn1 [Example 70, (2R)-1-[(2S)-6-(5-cyclopropylpyrazin-2-yl)-7-methyl-3,4-dihydro-1H-spiro[1,8-naphthyridine-2,3′-pyrrolidin]-1′-yl]-2-(5-fluoro-2-methoxypyridin-4-yl)propan-1-one]	–	40
